As a reminder, the IC50 is the concentration that gives 50% inhibition.

One test has as its system Wnt/β-catenin pathway. Conditions: cited from earlier work.
Test [1] concerns tail-tip fibroblasts (TTFs). As to the kind of experiment: Neural transdifferentiation of TTFs in presence of JAK inhibitor. In kind it is cell-based, mouse. As to conditions: JAK inhibitor 1 0.5 μM from day 4 onward. The method, then: For TTF reprogramming, Lentivirus supernatants were produced and harvested as previously described (Takahashi K. et al. Cell 131(5):861-872 (2007)). Briefly, 293T cells (Invitrogen) were plated at 5×10^6 cells per 100 mm dish and incubated overnight in a 37° C. incubator. Cells were transfected with 4 μg pHAGE2-TetOminiCMV-STEMCCA (29) or FUW-M2rtTA (Addgene) along with packaging mix (1 μg psPAX2 and 3 μg pMD2.G) (Addgene) and FuGENE 6 Transfection Reagent (Roche), according to the manufacturer's instructions. The cells were then cultured in a 32° C. degree incubator, after which supernatants were collected at 48 and 72 hours (post-transfection) and filtered through a 0.45 μm filter (Millipore) before use. TTFs were prepared as previously described (Takahashi, K., et al., Cell 126(4):663-676 (2006)). Briefly, tails (only the final third) were cut into small pieces (less than 0.5 cm) and grown on gelatine-coated plates in MEF medium. Cells that migrated out of the tissue were transferred into new dish and used after one more passage (p3). After two rounds of transduction with STEMCCA and rtTA expressing virus, cells were plated on Geltrex-coated dishes at 2×10^4 cells/cm^2 and reprogrammed as described above. JAK inhibitor 1 (Calbiochem) was added from day 4 onward at 0.5 μM during TTF transdifferentiation. […]

A further test relates to R1 ES cells. As to the kind of experiment: Serum-free monolayer cardiac differentiation of ES cells, beating colonies. As to conditions: early treatment window. In kind it is cell-based, mouse. Here is the method: Having identified the first serum-free monolayer condition for cardiac differentiation of ES cells, we sought to test its efficacy as a platform to discover regulators of cardiomyogenesis. A collection of approximately 200 small molecules and growth factors reported to be influential in developmental processes were assembled. R1 ES cells were grown and plated for differentiation on Matrigel in 24-well plates using the media and growth factors described above. The screening collection was then added and removed from each well at specific time points in order to account for different developmental time windows. The collection was screened at days 0-2, 2-5, and 5-7.
Cells are plated at a density of 200,000 cells/well of a 6-well plate in 2.5 ml of ESGM. 6-well plates are coated overnight at 4° C. with 1 ml of Matrigel (BD Bioscience) diluted 50× from stock concentration. 24 hours after plating, or after sufficient colony size was achieved, cells are switched into chemically defined medium (CDM) and treated with 4 uM BIO (Calbiochem) and 20 ng/ml BMP-4 (R&D). CDM contains RPMI 1640, 0.5×N2, 1×B27 (without Vitamin A), 0.5× Glutamax, 0.55 mM beta-mercaptoethanol, 1× non-essential amino acids, 1× nucleosides. At Day 2, medium is changed, and again CDM containing 4 uM BIO with 20 ng/ml BMP-4 is added to the cells. At Day 5, cells are washed once with PBS and medium is changed to CDM containing 100 ng/ml Dkk-1 (R&D). At Day 7, medium is changed, and again CDM containing 100 ng/ml Dkk-1 is added to the cells. At Day 10, cells are trypsinized (0.05% trypsin) (Approximately 5 minutes at 37° C., or until cells begin to detach) and replated onto gelatin coated 6-well plates in CDM with no additional growth factors. By this time, the cells will have formed tight colonies that will be difficult to disrupt (Supplementary FIG. 2b). […] The trypsin is used primarily to detach the cells rather than to dissociate them to a single cell suspension. It is preferable for the colonies to remain intact. The trypsin is briefly quenched with MEF media, cells are centrifuged, and resuspended in CDM for plating. Medium is refreshed as needed to remove dead cells and debris (every 1 to 2 days).

For the next test, the system named is Brachyury-EGFP ES cell. Description: FACS analysis of mesodermal markers (Brachyury-GFP, Flk-1). In kind it is cell-based, mouse. As to conditions: treated day 0-2, harvested day 4.5. The method, then:
To ascertain what role calcium and cAMP might be playing in this early stage of cardiac differentiation, FACS was carried out using two markers involved in mesodermal fates. Specifically, a Brachyury-EGFP ES cell (a gift from the Keller lab) was used to identify cells progressing to a primitive streak type population. Further, cells were stained using a Flk-1 antibody to further delineate axial location of the primitive streak type cells. Briefly, cells were treated with small molecules for day 0-2, and harvested at day 4.5 for analysis.
Cells were harvested into a single cell suspension by treatment with 0.05% trypsin, quenched with serum containing medium, and resuspended in FACS buffer: lx PBS (Ca/Mg^2+ free), 1 mM EDTA, 25 mM HEPES pH 7.0, 1% Fetal Bovine Serum. Cells were then filtered with […], and stored at 4° C. until analysis.
For orientation: A flow cytometer gives signals particle by particle.

For the next test, the system named is secondary MEFs. As to the kind of experiment: Neural transdifferentiation of secondary MEFs with exposure to LIF-containing medium. In kind it is cell-based, mouse. Here is the method:
NGFP1 Dox-inducible iPS cells (Hanna J. et al., Nature (2009); Hanna, J. et al., Cell 133(2):250-264 (2008)) (Stemgent) were injected into C57BL/6 blastocysts and implanted into surrogate mice (CD1, Harlan). Chimeric embryos were isolated at E12.5-13.5. Heads, developing organs and spinal cords were carefully removed from the embryos and MEFs were prepared and selected as previously described (Hanna J. et al., Nature (2009); Wernig, M. et al., Nat Biotechnol 26(8):916-924 (2008); Hanna, J. et al., Cell 133(2):250-264 (2008)). For reprogramming, secondary MEFs (p3-4) were plated on Geltrex-coated culture dishes at 1.5-2×10^4 cells/cm^2 in MEF medium (Dullbecco's modified Eagle's medium supplemented with 10% fetal bovine serum, 0.1 mM non-essential amino acids, and 2 mM Glutamax). Doxycycline (Sigma-Aldrich, 2-8 μg/ml) treatment was initiated the next morning (Day 0) and continued until the designated day(s). Cells were cultured in MEF medium for an additional day and changed to reprogramming initiation medium (RepM-Ini; knock-out DMEM supplemented with 10% knock-out serum replacer, 5% FBS, 0.1 mM NEAA, 2 mM Glutamax, and 0.055 mM β-mercaptoethanol) for three days. For neural stem/progenitor reprogramming, the medium was changed into neural reprogramming medium (RepM-Neural; Advanced DMEM/F12 and Neurobasal medium were mixed by 1:1 and supplemented with 0.05% bovine serum albumin, 1×N2, 1×B27, 2 mM Glutamax, 0.11 mM β-mercaptoethanol, 20 ng/ml FGF2, 2 ng/ml FGF4, and 20 ng/ml EGF). RepM-Pluri is the same as RepM-Ini, with the addition of 1000 units/ml LIF (Millipore).
Total RNA was extracted from samples at the designated time points using the RNeasy Plus Mini Kit with QiaShredder (Qiagen). One microgram of total RNA per sample was reverse-transcribed using the iScript cDNA synthesis kit (Bio-Rad) and the cDNA was diluted with 130 ul of water. 1/50 of the diluted cDNA was used for quantitative PCR with iQ SYBR Green Supermix on the CFX96 system (Bio-Rad). All qPCR reactions were done in duplicate or triplicate, and the expression data were normalized to both Gapdh and β-actin expression using CFX manager software (Bio-Rad). All primer sequences are listed in previous publications (Hanna J. et al., Nature (2009); Wernig, M. et al., Nat Biotechnol 26(8):916-924 (2008); Greber, B. et al., Cell Stem Cell 6(3):215-226 (2010)).
Samples were washed once with D-PBS (Invitrogen, without Ca^2+ and Mg^2+) and were fixed with a 4% pure-formaldehyde solution (Electron Microscopy Sciences) with 0.15% picric acid (Sigma-Aldrich) in D-PBS for 20 min, followed by three washes with D-PBS. Blocking and permeabilization were done with a 3% BSA (Jackson ImmunoResearch) and 0.3% Triton X-100 (Sigma-Aldrich) solution in D-PBS for 1 hr at room temperature. […]

Test [2] relates to mouse embryonic fibroblasts (MEFs). Description: Direct cardiac reprogramming of fibroblasts, contracting patch/colony counts. In kind it is cell-based. Conditions: standard reprogramming media with LIF for the first nine days. The text has this:
Having successfully initiated the early cardiogenic program in MEFs, we next sought to induce robust activation of mid-stage cardiac gene expression and to ultimately generate spontaneously contracting patches of cardiac cells, a hallmark of terminal differentiation that is easily observed and quantified. To this end, we treated three-factor transduced MEFs with chemically defined media (CDM) as well as cytokines and small molecules that might enhance cardiogenesis by regulating TGFβ, bone morphogenetic protein (BMP), Hedgehog, Wnt, or Notch pathway activity. Treatments were done individually and in combination, and at different times during the reprogramming process. Despite the general unsuitability of the resulting protocol for iPSC generation, we also explored whether small-molecule inhibition of JAK-STAT (Janus kinase-signal transducer and activator of transcription), PI3K (phosphatidylinositol 3-kinase), or Wnt signalling during the early stages of the protocol might boost the effectiveness of cardiomyogenesis by preventing even a small number of iPSC intermediates from forming. Finally, we experimented with a more gradual transition between different media by lowering FBS concentration step-wise in increments of 1-4% over 3-6 days (immediately prior to switching to CDM). […] During this initial nine-day period, the small-molecule JAK inhibitor JD is continuously kept in the media at a concentration of 0.5 μM. From day nine onwards, the cells are cultured in CDM, with the cardioinductive growth factor BMP4 (Snyder, A. et al., J Cell Biochem 93, 224-32 (2004)) being added at 20 ng/ml for the first five days (FIG. 1b).
All MEFs (129S2/SvPasCrlf) were derived according to WiCell protocols (https://www.wicell.org/index.php?option=com_docman&task=doc_download&gid=687). TTFs were a kind gift of Dr. Hans Schöler. Secondary MEFs were derived as previously described (Wernig, M. et al., Nat Biotechnol 26, 916-24 (2008)). All results were initially obtained and confirmed with the Nebulette-LacZ MEFs; to ensure reproducibility and minimize inter-experimental variation, reported results almost exclusively derive from experiments utilizing secondary dox-inducible MEFs using the optimum induction period. MEFs were initially passaged on gelatin-coated (0.1% for 2 hours at 37° C.) tissue culture dishes in DMEM supplemented with 10% FBS, 2 mM Glutamax and 0.1 mM NEAA (all components from Invitrogen, Carlsbad, Calif.). Prior to viral transduction, cells were seeded onto Matrigel (BD Biosciences, Franklin Lakes, N.J.) or Geltrex (Invitrogen)-coated plates (1:40, overnight at 4° C.) at 3.5×10^4 cells per well of a six well plate (7×10^4 cells for TTFs) in the same media. […]

With `Cc1ccc2nc(NC(=O)CSc3nc4c(c(=O)n3-c3ccccc3)SCC4)sc2c1` [IWP-2, 2-(3,4,6,7-tetrahydro-4-oxo-3-phenylthieno[3,2-d]pyrimidin-2-ylthio)-N-(6-methylbenzo[d]thiazol-2-yl)acetamide], in the test on Wnt/β-catenin pathway, the IC50 is 27 nM.

As for `CC(C)(C)c1nc2c3ccc(F)cc3c3c(=O)[nH]ccc3c2[nH]1` [JAK inhibitor1], in test [1], the “Pax6 expression of colonies” value is reported as “all remaining colonies homogeneously expressed Pax6” and the “decrease in number of colonies” value was “around 30%”.

Regarding `CC(C)NCC(O)COc1cccc2ccccc12` (centres unmarked) [propranolol], the “cardiac differentiation / percentage of beating colonies” value in the test with R1 ES cells is listed as “greatly decreased cardiac potential”. In addition, in the test on Brachyury-EGFP ES cell, the “Flk-1 positive portion of GFP+ cells” value is recorded as “decreased”.

In the case of “LIF: leukaemia inhibitory factor, added to standard reprogramming medium”, the “gene expression of Sox1, Pax6, Nanog, Rex1” value in the test on secondary MEFs (day 9) is “down-regulation of Sox1 and Pax6 with concomitant up-regulation of Nanog and Rex1”. For the same molecule, the “number of PLZF-expressing colonies” value with secondary MEFs (day nine, as little as one day LIF exposure) is listed as “clearly decreased”. Also, the “Sox17, T, and FGF5 expression” value with secondary MEFs (days 9, 11, and 13) is on record as “increased”. Further, the “number of SSEA1-expressing cells” value in the test with secondary MEFs (flow cytometry) was “increases”. Further, in test [2], the “decline in beating colony number” value is recorded as around 25 fold and the onset of beating entry is “four-day delay”.
